System: eIF2-GTP-Met-tRNAi ternary complex
Assay: Ternary complex assay (dual luciferase, firefly/renilla ratio) in stable KLN-tTA/pBISA-DL(ATF-4) cells; HTS and hit confirmation
Assay type: cell-based, mouse
Design: Activity 10 uM / Activity 2.5 uM / Activity 5 uM: unit not given here
Conditions: confirmed hits of the screen (Table 5); for Activity 5 uM: compound at 5 uM; for Activity 10 uM: compound at 10 uM; for Activity 2.5 uM: compound at 2.5 uM
Source text: For assay development, a bi-directional plasmid was designed in which a common promoter/enhancer complex drives the transcription of firefly luciferase (F-luc) ORF fused to the 5′ untranslated region (UTR) of ATF-4, and of the renilla luciferase (R-luc) ORF fused to a 90-nucleotide 5′ UTR derived from the plasmid (FIG. 6A). Because the tetracycline-regulated transactivator ((tTA), required for driving transcription from this vector) is not normally expressed in the mammalian cells, stable KLN cancer cells were constructed that expressed tTA (KLN-tTA).
The KLN-tTA colonies that drove expression of reporter genes from pBISA-DL plasmid were selected by transient transfection and dual luciferase assay. One of these KLN-tTA cell lines was transfected with the pBISA-DL^(ATF-4) expression vector, stable colonies were selected by dual luciferase assay and expanded. To determine if reduced availability of the eIF2*GTP*Met-tRNAi ternary complex increased the translation of firefly luciferase and decreased translation of renilla luciferase, selected KLN-tTA/pBISA-DL^(AFT-4) colonies were treated with thapsigargin (TG) or tunicamycin (TU), two agents known to cause phosphorylation of eIF2α.
This assay was then adapted for high throughput screening in 96 and 384 well plates. This was done by evaluating the cell density, length of exposure to compounds, DMSO tolerance and optimum firefly and renilla substrate. We then challenged these cells with thapsigargin or DMSO. […] Cell-based assays usually have higher variation than homogeneous in vitro assays due to position effect in the plate, and other variables associated with handling of cells and the plates.
Screening was conducted in 384 well white opaque plates (Nalge Nunc), 100 μl volume RPMI+10% fetal bovine serum. Cells were plated at the sub-confluent density of 10,000 cells/well, and allowed to attach for a period of 16-18 hours at 37° C., 5% CO2. Compounds were added as 1 μl of a 1 mM DMSO stock solution for a final screening concentration of 10 μM, using low-volume tips for transfer (Molecular Bioproducts). Cells were then incubated in the presence of compound for an additional sixteen hours, again at 37° C., 5% CO2. Following incubation 70 μl of the culture medium was removed from each well to allow for reagent addition and plates were allowed to equilibrate to room temperature for thirty minutes. Firefly luciferase reporter activity was then read by the addition of thirty microliters of Dual Glo Luciferase reagent (Promega), followed by one hour incubation at room temperature to allow for adequate signal buildup. Luminescence counting was conducted on a Microbeta Trilux using a 1 second read time. Renilla luciferase reporter activity was measured following addition of 30 μl Stop and Glo Luciferase reagent (Promega) and incubation identical to the one carried out for the firefly luciferase one.
Compound scores were interpreted as firefly luciferase activity divided by renilla luciferase activity, normalized to the plate's DMSO control. […] All data analysis was conducted using the BioAssay HTS software package (CambridgeSoft).
102,709 compounds in the NCI Open Chemical Repository were then screened using this HTS assay. […] Initial hits were confirmed by repeating the same dual luciferase assay in 96 well plates. Briefly, 20,000 cells/well were plated in triplicate for each concentration (10, 5 and 2.5 μM) of the compounds.

CCN(CC)c1ccc(C(O)C2=CC(=O)c3ccccc3C2=O)cc1 (stereo not shown) [Compound 58338]
Activity 5 uM: 11.604
Activity 10 uM: 17.599

COc1ccc(/C=C/c2ccc3ccccc3n2)cc1O.Cl [Compound 59070]
Activity 5 uM: 6.227
Activity 10 uM: 7.423

C[C@]12CC[C@H]3[C@@H](CCC4=CC(=O)CC[C@@H]43)[C@@H]1CC[C@@]2(O)C#CC#C[C@]1(O)CC[C@H]2[C@@H]3CCC4=CC(=O)CC[C@@H]4[C@H]3CC[C@@]21C [Compound 59465]
Activity 5 uM: 1.8
Activity 10 uM: 6.8

CCCCCCCC[N+](C)(CCCCCCCC)CCCCCCCC.[Cl-] [Compound 61369]
Activity 5 uM: 3
Activity 10 uM: 4.4

O=c1cc(-c2ccc3ccccc3n2)oc2ccc(Cl)cc12 [Compound 61626]
Activity 5 uM: 2.793
Activity 10 uM: 3.1685

CN(C)c1ccc(C=Cc2ccnc3ccccc23)cc1.Cl [Compound 63346]
Activity 5 uM: 6.234
Activity 10 uM: 6.8235

[Cl][Hg][Cl].c1cnccn1 [Compound 65429]
Activity 2.5 uM: 3.49

S=P(Sc1ccccc1)(Sc1ccccc1)Sc1ccccc1 [Compound 65486]
Activity 5 uM: 17.496
Activity 10 uM: 20.8755

c1cc[c]([Hg][O]c2cccc3cccnc23)cc1 [Compound 66326]
Activity 10 uM: 5.2

Cc1ccc(N=P2(Nc3ccc(C)cc3)N=P(Nc3ccc(C)cc3)(N3CC3)NP(=Nc3ccc(C)cc3)(N3CC3)N2)cc1 (stereo not shown) [Compound 67112]
Activity 5 uM: 3.1
Activity 10 uM: 16.3

Cc1cc(N(CCCl)CCCl)ccc1N=Nc1ccccc1C(=O)[O-].Cc1cc(N(CCCl)CCCl)ccc1N=Nc1ccccc1C(=O)[O-].[Cu+2] [Compound 68292]
Activity 5 uM: 7.2
Activity 10 uM: 18.3

CCCCCCCCCCCC(c1ccccc1)[N+](C)(C)Cc1ccccc1.[Cl-] (stereo not shown) [Compound 69510]
Activity 5 uM: 5.6
Activity 10 uM: 10.9

O=C1C(Cl)=C(Cl)C(=O)N1c1cccc2c(N3C(=O)C(Cl)=C(Cl)C3=O)cccc12 [Compound 69580]
Activity 5 uM: 3.5
Activity 10 uM: 6.4

O=C(Nc1cccc(Cl)c1)Nc1cccc(Cl)c1 [Compound 69625]
Activity 5 uM: 6.201
Activity 10 uM: 4.8565

O=C(CCl)N1c2ccccc2Sc2ccccc21 [Compound 71676]
Activity 5 uM: 2.922
Activity 10 uM: 4.1015

Clc1cccc2ccc(-c3cc4ccccc4s3)nc12 [Compound 71689]
Activity 5 uM: 5.724
Activity 10 uM: 7.139

c1csc(-c2ccc3ccccc3n2)c1 [Compound 71690]
Activity 5 uM: 2.889
Activity 10 uM: 3.4315

O=C(/C=C/c1ccccc1)OC1CCCCC1 [Compound 71968]
Activity 5 uM: 2.615
Activity 10 uM: 3.5615

O=C(Nc1ccc(Cl)cc1)Nc1ccc(Cl)c(Cl)c1 [Compound 72005]
Activity 5 uM: 11.25
Activity 10 uM: 16.9235

O=C(OCCc1ccccc1)c1ccccc1O [Compound 72035]
Activity 5 uM: 3.275
Activity 10 uM: 3.8265

CCOC(=O)c1cnc(SCc2ccccc2)nc1N [Compound 72266]
Activity 5 uM: 2.946
Activity 10 uM: 3.233

COc1cc(NC(=O)c2cc3ccccc3cc2O)c(OC)cc1Cl [Compound 73118]
Activity 5 uM: 8.006
Activity 10 uM: 10.008

CCCCCCCCCCCCCCCCCC[N+](C)(C)C.Cc1ccc(S(=O)(=O)[O-])cc1 [Compound 74566]
Activity 5 uM: 1.7
Activity 10 uM: 3.7

CCCCCCCCCCCCCCCCCC[N+](C)(C)C.O=S(=O)([O-])c1ccccc1 [Compound 74568]
Activity 5 uM: 2.1
Activity 10 uM: 4.8

C(=P(c1ccccc1)(c1ccccc1)c1ccccc1)[P+](c1ccccc1)(c1ccccc1)c1ccccc1.[Br-] [Compound 74740]
Activity 5 uM: 5.6
Activity 10 uM: 4.1

Cl.NC(N)=N/N=C/N/N=C/c1ccccc1O [Compound 75971]
Activity 5 uM: 3.111
Activity 10 uM: 3.3355

CC(=O)[O][Sn]([c]1ccccc1)([c]1ccccc1)[c]1ccccc1 [Compound 76068]
Activity 2.5 uM: 1.02
Activity 10 uM: 3.68

Oc1ccccc1/C=N/NC(=S)Nc1ccc2cn[nH]c2c1 [Compound 76429]
Activity 5 uM: 4.409
Activity 10 uM: 5.2405

ClCCN(CCCl)c1ccc(C2=Nc3cccc4cccc(c34)N2)cc1 [Compound 78577]
Activity 2.5 uM: 0.74
Activity 10 uM: 3.56

CCCCCCCCCCCC[n+]1ccc(C)cc1C.Cc1ccc(S(=O)(=O)[O-])cc1 [Compound 78949]
Activity 5 uM: 4.1
Activity 10 uM: 7.7

O=Nc1c2cc3ccccc3[nH]c-2c2ccccc12 [Compound 81523]
Activity 5 uM: 7.526
Activity 10 uM: 8.879

Clc1ccc(/C=N\N2CCCCCC2)cc1 [Compound 82278]
Activity 5 uM: 3.288
Activity 10 uM: 3.1525

CCCCCCCCCCCCCC[n+]1ccccc1.[Cl-] [Compound 82910]
Activity 5 uM: 7.654
Activity 10 uM: 12.4425

CCN(CC)c1ccc(/C=C2\C=Cc3ccccc32)cc1 [Compound 83089]
Activity 5 uM: 10.155
Activity 10 uM: 5.1265

O=[N+]([O-])c1ccc(N=Nc2c(Cl)cc(O)cc2Cl)cc1 [Compound 83318]
Activity 5 uM: 12.03
Activity 10 uM: 14.6225

CNc1c(F)cc(N=Nc2ccccc2)cc1F [Compound 83335]
Activity 2.5 uM: 2.77
Activity 10 uM: 3.31

CCCCCCCCCCCC[N+](C)(C)C.[O-]c1c(Cl)c(Cl)c(Cl)c(Cl)c1Cl [Compound 85573]
Activity 5 uM: 2.1
Activity 10 uM: 3.1

CC(=O)c1cccc(N=NNc2cccc(C(C)=O)c2)c1 [Compound 85646]
Activity 5 uM: 3.127
Activity 10 uM: 4.18

C1=Cc2ccccc2/C1=C/c1ccc2c(c1)OCO2 [Compound 86430]
Activity 5 uM: 4.871
Activity 10 uM: 6.063

COc1ccc(NNc2ccc(OC)cc2)cc1 [Compound 86489]
Activity 2.5 uM: 2.73
Activity 10 uM: 3.17

Cc1ccc(NN(C)c2ccc(C)cc2)cc1 [Compound 86537]
Activity 2.5 uM: 3.85
Activity 10 uM: 7.51

Cc1ccc(NNc2ccc(C)cc2)cc1 [Compound 86544]
Activity 5 uM: 3.954
Activity 10 uM: 4.845

O=c1[nH]cnc2nc(-c3ccc(N(CCCl)CCCl)cc3)[nH]c12 [Compound 87086]
Activity 5 uM: 6.572
Activity 10 uM: 5.461

Br.CCC1=C(C)/C(=C/c2[nH]c(C)c(CC)c2C)N=C1C [Compound 87240]
Activity 2.5 uM: 1.45
Activity 10 uM: 37.28

CN(C)c1ccc(N=Nc2ccc3ncccc3c2)cc1 [Compound 87323]
Activity 5 uM: 5.277
Activity 10 uM: 6.0905

OCCc1ccc(-n2cnc3c(Nc4ccc(Cl)cc4)ncnc32)cc1 [Compound 87695]
Activity 2.5 uM: 3.28
Activity 10 uM: 4.42

O=Cc1cc(CCCCCCc2ccc(O)c(C=O)c2)ccc1O [Compound 88001]
Activity 5 uM: 12
Activity 10 uM: 21.4655

Cc1cc(N(CCCl)CCCl)ccc1CN1CCCN(Cc2ccc(N(CCCl)CCCl)cc2C)C1c1ccccc1O [Compound 88655]
Activity 2.5 uM: 0.7
Activity 10 uM: 18.32

CN(CCC(=O)/C(=C\c1ccc(Cl)cc1)c1ccccc1)Cc1ccccc1.Cl [Compound 89160]
Activity 2.5 uM: 9.22

ClCCN(CCCl)c1ccc(C(Cl)(c2ccc(N(CCCl)CCCl)cc2)c2ccc(N(CCCl)CCCl)cc2)cc1 [Compound 89864]
Activity 5 uM: 9.4
Activity 10 uM: 10.1

Clc1ccccc1-c1ncc(-c2ccccc2)o1 [Compound 90299]
Activity 2.5 uM: 2.1
Activity 10 uM: 3.21

Clc1ccc(-c2ncc(-c3ccccc3)o2)c(Cl)c1 [Compound 90467]
Activity 2.5 uM: 2.6
Activity 10 uM: 3.88

Cc1cccc(-c2ncc(-c3ccccc3)o2)c1 [Compound 90777]
Activity 5 uM: 6.553
Activity 10 uM: 8.406

Source: patent US9932300B2, “N,N′-diarylurea compounds and N,N′-diarylthiourea compounds as inhibitors of translation initiation” (President and Fellows of Harvard College, priority 2009, dated 2018)
